Values quoted from earlier work as cited in patent US20090062268A1, “NOVEL INHIBITORS OF POLY(ADP-RIBOSE)POLYMERASE (PARP)” (LEAD THERAPEUTICS, INC., priority 2007, published 2009).
Where two headings read alike, the source gives them in different places.

Tests used:
PARP-1 = PARP-1 (Homo sapiens, UniProt P09874); conditions: Farmer et al., Nature 2005
[1] = test system: BRCA2-deficient cell line V-C8; conditions: BRCA2-deficient V-C8 compared with the BRCA2 wild type control
CAPAN-1 cells = CAPAN-1 cells in DMEM with FCS (20% v/v), glutamine and antibiotics

Sequence of PARP-1 (P09874 whole entry, species assumed): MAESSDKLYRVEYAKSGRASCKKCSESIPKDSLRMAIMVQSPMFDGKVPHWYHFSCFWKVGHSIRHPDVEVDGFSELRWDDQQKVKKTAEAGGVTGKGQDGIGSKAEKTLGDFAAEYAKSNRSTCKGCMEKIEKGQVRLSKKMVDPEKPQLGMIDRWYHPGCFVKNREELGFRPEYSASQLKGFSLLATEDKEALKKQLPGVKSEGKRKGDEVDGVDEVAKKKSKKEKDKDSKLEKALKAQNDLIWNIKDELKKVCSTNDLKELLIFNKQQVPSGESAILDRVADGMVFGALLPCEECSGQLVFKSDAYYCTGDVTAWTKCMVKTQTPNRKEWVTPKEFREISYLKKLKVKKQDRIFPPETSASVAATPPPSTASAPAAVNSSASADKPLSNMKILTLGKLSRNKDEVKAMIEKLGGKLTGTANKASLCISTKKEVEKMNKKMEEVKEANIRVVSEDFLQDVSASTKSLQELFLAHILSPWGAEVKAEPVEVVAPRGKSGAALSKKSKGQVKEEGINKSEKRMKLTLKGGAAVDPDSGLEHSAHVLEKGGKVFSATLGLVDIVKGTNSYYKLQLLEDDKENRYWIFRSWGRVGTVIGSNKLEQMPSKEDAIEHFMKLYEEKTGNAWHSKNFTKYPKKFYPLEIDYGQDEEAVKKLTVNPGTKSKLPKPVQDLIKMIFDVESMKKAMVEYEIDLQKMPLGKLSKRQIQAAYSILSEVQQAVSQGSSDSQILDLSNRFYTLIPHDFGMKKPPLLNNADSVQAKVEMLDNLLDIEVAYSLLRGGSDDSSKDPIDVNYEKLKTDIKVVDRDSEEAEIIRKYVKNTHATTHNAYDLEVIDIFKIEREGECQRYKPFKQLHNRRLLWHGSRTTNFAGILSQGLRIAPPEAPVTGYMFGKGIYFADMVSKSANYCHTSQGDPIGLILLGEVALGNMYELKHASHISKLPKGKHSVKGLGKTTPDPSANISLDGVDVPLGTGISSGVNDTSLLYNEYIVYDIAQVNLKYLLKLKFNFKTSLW

| SMILES | Ki (PARP-1; PARP-1 inhibitor) [nM] | sensitivity in clonogenic survival assay [1] | sensitivity to PARP inhibition in clonogenic survival assay (CAPAN-1 cells) | in vivo efficacy, tumor growth (BRCA2-deficient tumors) | Ki (PARP-1; moderately potent PARP-1 inhibitor) [nM] |
| --- | --- | --- | --- | --- | --- |
| CN(C)Cc1ccc(-c2nc3cccc4c3n2CCNC4=O)cc1 [AG14361] | 5 | exhibited sensitivity | – | – | – |
| O=C1CCC(=O)N1c1cc(Cc2n[nH]c(=O)c3ccccc23)ccc1F [KU0058684] | – | – | showing sensitivity | in vivo efficacy in blocking the growth of BRCA2-deficient tumors | – |
| Cc1nc2c(O)cccc2c(=O)[nH]1 [NU1025] | – | exhibited sensitivity | – | – | 50 |
